Test results from patent EP2067771A1, “Derivatives of Dihydroxypyrrolidine as Anti-Cancer Compounds” (EPFL Ecole Polytechnique Fédérale de Lausanne, priority 2007, dated 2009).
Read-outs that look alike come from different tables or passages of the source. Each block holds one compound with its values, some of them ahead of it.

What was measured:
A549 = experiment: Viability assay (CellTiter 96 Aqueous1), cell growth inhibition; format: cell-based; conditions: Homo sapiens; A549 (lung carcinoma), viability 72 hours after addition
Description: (§1) Cell lines and reagents. The tumor cell lines used for the in vitro evaluation of cell growth inhibition by dihydroxypirolidine derivatives were U87 (glioblastoma), PC3 (prostate cancer), A549 (lung carcinoma), MDA-MB231, MCF7, BT474, and SKBR3 (breast cancer). Cells were grown in 10-cm culture dishes with McCoy medium containing 10% fetal calf serum (FCS) and antibiotics at 37°C and 5% CO2. The dihydroxypirolidine derivatives CB161, CB181, and CB183 were weighted and dissolved in DMSO to prepare a stock solution concentrated 100 mM.
(§2) Viability assays. For the viability assays, 5 x 10^4 cells/well were plated in 200 µl medium in 96 well plates. 48 hours later, the dihydroxypirolidine derivatives were added to the wells at concentrations ranging between 10^-2 and 400 µM, such that the vehicle DMSO never exceeded 0.4%. Each drug concentration was tested in duplicate. Viability was determined 72 hours later using CellTiter 96 Aqueous1 (Promega) according to the manufacturer's instructions. Incubation times with CellTiter96 Aqueous1 ranged between 2 and 4 hours. Plates were read with a spectrophotometer (Labsystems iEMS Reader MF) at 490 nm wave length. IC50s were estimated using GraphPad Prism4.

MDA-MB-231 = experiment: as above; format: cell-based; conditions: Homo sapiens; MDA-MB-231 (breast cancer), viability 72 hours after addition
Description: as §1, §2

U87 = experiment: as above; format: cell-based; conditions: Homo sapiens, U-87 MG
Description: as §1, §2

MCF7 = experiment: as above; format: cell-based; conditions: Homo sapiens; MCF7 (breast cancer), viability 72 hours after addition
Description: as §1, §2

SKBR3 = experiment: as above; format: cell-based; conditions: Homo sapiens, SK-BR-3; SKBR3 (breast cancer), viability 72 hours after addition
Description: as §1, §2

PC3 = experiment: as above; format: cell-based; conditions: Homo sapiens, PC-3; PC3 (prostate cancer), viability 72 hours after addition
Description: as §1, §2

BT474 = experiment: as above; format: cell-based; conditions: Homo sapiens, BT-474; BT474 (breast cancer), viability 72 hours after addition
Description: as §1, §2

[1] = system: seven established human tumor cell lines; experiment: Viability assay, panel of seven tumor cell lines; format: cell-based; conditions: all the cell lines tested
Description: as §1, §2

human glioblastoma cells = conditions: S. Favre et al., Heterocycles 2006; cited from earlier work
glioblastoma cell growth = conditions: H. Fiaux et al., J. Med. Chem. 2005; cited from earlier work
[2] = refers to Figure 8 (U87 glioblastoma), read-out: IC50s (growth inhibition effects)

SMILES: OC[C@H](NC[C@H]1NC[C@H](O)[C@@H]1O)c1ccc(-c2ccc(C(F)(F)F)cc2)cc1 [CB183, (2R,3R,4S)-2-{{{(1R)-2-hydroxy-1-[4'-(trifluoromethyl)-[1,1'-biphenyl]-4-1]ethyl}amino}methyl}pyrrolidine-3,4-diol]
IC50 (A549): 152 µM
IC50 (MDA-MB-231): 65.8 µM
IC50 (U87; U87 (glioblastoma), viability 72 hours after addition, read-out: IC50): 80 µM
IC50 (MCF7): 76.7 µM
IC50 (SKBR3): 48.3 µM
IC50 (PC3): 132 µM
IC50 (BT474): 93.3 µM
potent cytotoxic activity for concentrations [1]: < 200 µM

SMILES: OC[C@H](NC[C@H]1NC[C@H](O)[C@@H]1O)c1ccc(-c2ccccc2)cc1 [CB161]
IC50 (U87; [2]): > 200 µM

SMILES: O=C(NC[C@H](NC[C@H]1NC[C@H](O)[C@@H]1O)c1ccccc1)c1cccc(Br)c1 [N-[(2R)-2-({[(2R,3R,4S)-3,4-dihydroxypyrrolidin-2-yl]methyl}amino)-2-phenylethyl]-3-bromobenz-amide]
inhibition of human glioblastoma cells (human glioblastoma cells): convincing inhibition

SMILES: O[C@H]1[C@H]2[C@H](O)CCCN2C[C@H]1O [swainsonine]
inhibitory effect on glioblastoma cell growth (glioblastoma cell growth): only little inhibitory effect

IC50 (U87; [2]): > 200 µM
SMILES: C=CCOc1ccc([C@H](CO)NC[C@H]2NC[C@H](O)[C@@H]2O)cc1 [CB181, (2R,3R,4S)-2{{{(1R)-2-hydroxy-1-[4-(prop-2-enyloxy)phenyl]ethyl}amino}methyl} pyrrolidine-3,4-diol]
